Measurements reported in ChEMBL document CHEMBL1201862, “PubChem BioAssay data set” (2004).
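Cells were grown in 96-well plates and exposed to each compound for 48 hours at five concentrations; endpoints were interpolated linearly between bracketing concentrations, or set to the highest concentration if not reached. Abbreviation: GI50, concentration required for 50% inhibition of growth.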 Active and inactive are the calls of the source. Rule as the data show it: active = GI50 up to about 1.1 µM and inactive = higher. Residues, ends and D or L forms follow the SMILES beside them. *: point of attachment. Cbz = O=C(OCc1ccccc1)*

Columns and labels:
Assay in all cases: NCI-60 cell line screen, 48 h
CAKI-1 = system: CAKI-1
DU-145 = system: DU-145
EKVX = system: EKVX
HCT-116 = system: HCT-116
HOP-62 = system: HOP-62
IGROV-1 = system: IGROV-1
LOX IMVI = system: LOX IMVI
M14 = system: M14
MDA-MB-435 = system: MDA-MB-435
NCI-H460 = system: NCI-H460
OVCAR-4 = system: OVCAR-4
OVCAR-5 = system: OVCAR-5
OVCAR-8 = system: OVCAR-8
PC-3 = system: PC-3
SF-268 = system: SF-268
SK-MEL-5 = system: SK-MEL-5
SNB-19 = system: SNB-19
SW-620 = system: SW-620
T47D = system: T47D
UACC-257 = system: UACC-257

SMILES | GI50 (CAKI-1) | GI50 (DU-145) | GI50 (EKVX) | GI50 (HCT-116) | GI50 (HOP-62) | GI50 (IGROV-1) | GI50 (LOX IMVI) | GI50 (M14) | GI50 (MDA-MB-435) | GI50 (NCI-H460) | GI50 (OVCAR-4) | GI50 (OVCAR-5) | GI50 (OVCAR-8) | GI50 (PC-3) | GI50 (SF-268) | GI50 (SK-MEL-5) | GI50 (SNB-19) | GI50 (SW-620) | GI50 (T47D) | GI50 (UACC-257)
O=C1C[C@H](Sc2ccccc2)C2(OCCO2)[C@H]2ON3CCC[C@@H]3[C@@H]12 | 2.29 µM (inactive) | 2.61 µM (inactive) | 2.53 µM (inactive) | 0.841 µM (active) | 2.01 µM (inactive) | 0.9 µM (active) | 1.09 µM (active) | 2.26 µM (inactive) | 1.67 µM (inactive) | 2.92 µM (inactive) | 2.57 µM (inactive) | 3.01 µM (inactive) | 0.918 µM (active) | 2.48 µM (inactive) | 1.65 µM (inactive) | 7.23 µM (inactive) | 5.18 µM (inactive) | 0.723 µM (active) | 2.06 µM (inactive) | 2.72 µM (inactive)
CC(C)(C)c1cc(C(=O)/C=C/c2ccc(O)c(O)c2O)cc(C(C)(C)C)c1O | 3.21 µM (inactive) | 10.5 µM (inactive) | 4.83 µM (inactive) | 2.73 µM (inactive) | 7.08 µM (inactive) | 6 µM (inactive) | 9.71 µM (inactive) | 5.46 µM (inactive) | 6.89 µM (inactive) | 1.78 µM (inactive) | 2.77 µM (inactive) | 17.5 µM (inactive) | 4.07 µM (inactive) | 3.67 µM (inactive) | 5.3 µM (inactive) | 5.6 µM (inactive) | 2.56 µM (inactive) | 2.58 µM (inactive) | 2 µM (inactive) | 3.05 µM (inactive)
CC1=CC[C@@H]2[C@@H](CC[C@@]2(C)O)C(C)(C)[C@H]1CC[C@@H]1[C@@]2(C)CCC(=O)C(C)(C)O[C@@H]2CC[C@]1(C)O | 36.1 µM (inactive) | 42.9 µM (inactive) | 42.1 µM (inactive) | 19.9 µM (inactive) | 32.9 µM (inactive) | 28.9 µM (inactive) | 19.1 µM (inactive) | 25.3 µM (inactive) | 30.7 µM (inactive) | 17.7 µM (inactive) | 39.1 µM (inactive) | 71 µM (inactive) | 24.8 µM (inactive) | 29.4 µM (inactive) | 29.9 µM (inactive) | 17.2 µM (inactive) | 26.9 µM (inactive) | 32.7 µM (inactive) | 43.5 µM (inactive) | 30.3 µM (inactive)
O=C(c1ccc(Cl)cc1)N1CCN=C1c1cc2ccccc2c2ccccc12 | 15.7 µM (inactive) | 17.9 µM (inactive) | 13.8 µM (inactive) | 14.9 µM (inactive) | 18.8 µM (inactive) | 14.3 µM (inactive) | 17.8 µM (inactive) | 38.7 µM (inactive) | 15.7 µM (inactive) | 11.5 µM (inactive) | 14.2 µM (inactive) | 19.8 µM (inactive) | 17.3 µM (inactive) | 17.1 µM (inactive) | 16.7 µM (inactive) | 14.8 µM (inactive) | 16.4 µM (inactive) | 17.3 µM (inactive) | 19.1 µM (inactive) | 17.5 µM (inactive)
Cc1cc(NCCCCCCCNc2cc(C)nc3cc([N+](=O)[O-])ccc23)c2ccc([N+](=O)[O-])cc2n1 | 23.7 µM (inactive) | 3.08 µM (inactive) | 15.2 µM (inactive) | 1.69 µM (inactive) | 20.5 µM (inactive) | 9.44 µM (inactive) | 2 µM (inactive) | 10.7 µM (inactive) | 11.7 µM (inactive) | 2.04 µM (inactive) | 2 µM (inactive) | 15.6 µM (inactive) | 1.87 µM (inactive) | 13.5 µM (inactive) | 2.4 µM (inactive) | 6.43 µM (inactive) | 10.3 µM (inactive) | 2.1 µM (inactive) | 3.52 µM (inactive) | 15.1 µM (inactive)
CCOC(=O)CCC(NC(=O)OCc1ccccc1)C(=O)NC(CCC(=O)OCC)C(=O)OCC (stereo not given) (Cbz-Glu(OEt)-Glu(OEt)-OEt; configuration not given here) | > 100 µM (inactive) | > 100 µM (inactive) | > 100 µM (inactive) | > 100 µM (inactive) | > 100 µM (inactive) | > 100 µM (inactive) | > 100 µM (inactive) | > 100 µM (inactive) | > 100 µM (inactive) | > 100 µM (inactive) | > 100 µM (inactive) | > 100 µM (inactive) | > 100 µM (inactive) | > 100 µM (inactive) | > 100 µM (inactive) | > 100 µM (inactive) | > 100 µM (inactive) | > 100 µM (inactive) | > 100 µM (inactive) | > 100 µM (inactive)
